Experimental data: patent US20250320224A1 (DOMAIN THERAPEUTICS, priority 2022, published 2025)

Biological target: T1, human PAR-2 (hPAR-2) receptor (Homo sapiens, UniProt P55085)
T1 construct: expressed in HEK-293 cells in an endogenous manner; endogenous in cells; host or cells: HEK-293
T1 sequence (P55085 26-397): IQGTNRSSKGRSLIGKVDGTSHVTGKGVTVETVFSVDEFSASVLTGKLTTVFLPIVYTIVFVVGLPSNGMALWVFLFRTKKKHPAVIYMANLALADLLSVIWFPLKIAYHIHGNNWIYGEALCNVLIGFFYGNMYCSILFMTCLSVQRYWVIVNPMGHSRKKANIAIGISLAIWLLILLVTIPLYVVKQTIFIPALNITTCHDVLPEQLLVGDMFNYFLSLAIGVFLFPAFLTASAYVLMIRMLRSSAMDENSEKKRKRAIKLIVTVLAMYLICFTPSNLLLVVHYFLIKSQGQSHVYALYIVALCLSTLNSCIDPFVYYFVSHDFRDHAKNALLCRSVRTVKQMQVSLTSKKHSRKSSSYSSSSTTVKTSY
Test: In vitro human PAR-2 functional antagonist activity using calcium assays
Format: cell-based
Settings: hPAR-2 endogenously expressed in HEK-293 cells; stimulated by 2-Furoyl-LIGRLO-NH2 peptide; Fluo4AM intracellular calcium, FLIPR Tetra
Outline: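 Antagonism was measured as reduced calcium response to 2-Furoyl-LIGRLO-NH2 (dosed at its 80%-of-maximum concentration), recorded for 5 min. This followed a 10 min compound pre-incubation on Fluo4AM-loaded HEK-293 cells expressing native hPAR-2. Signals were normalised to buffer and agonist-alone controls.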

SMILES | IC50 [nM]
CC(C)CN1CC(C)(Cc2ccc(Cl)c(F)c2)c2ccc(C(=O)N3CCN(c4ccc(CC(=O)O)cn4)CC3(C)C)nc21 (centres unmarked) [Example 197, 2-(6-(4-(3-(4-chloro-3-fluorobenzyl)-1-isobutyl-3-methyl-2,3-dihydro-1H-pyrrolo[2,3-b]pyridine-6-carbonyl)-3,3-dimethylpiperazin-1-yl)pyridin-3-yl)acetic acid] | > 10000
Cc1ccc(N2CC(C)(C)c3nc(C(=O)N4CCN(c5ccc(CC(=O)O)cn5)CC4(C)C)cnc32)cc1F [Example 203, 2-(6-(4-(5-(3-fluoro-4-methylphenyl)-7,7-dimethyl-6,7-dihydro-5H-pyrrolo[2,3-b]pyrazine-2-carbonyl)-3,3-dimethylpiperazin-1-yl)pyridin-3-yl)acetic acid] | < 500
CC1(C)CN(c2ccc(F)c(Cl)c2)c2ncc(C(=O)N3CCN(c4ccc(CC(=O)O)cn4)CC3(C)C)nc21 [Example 205, 2-(6-(4-(5-(3-chloro-4-fluorophenyl)-7,7-dimethyl-6,7-dihydro-5H-pyrrolo[2,3-b]pyrazine-2-carbonyl)-3,3-dimethylpiperazin-1-yl)pyridin-3-yl)acetic acid] | < 500
Cc1cc(N2CCN(C(=O)c3ccc4c(n3)C(C)(C)CN4c3ccc4c(c3)COC4)C(C)(C)C2)nc(C)c1C(=O)O [Example 209, 6-(4-(1-(1,3-dihydroisobenzofuran-5-yl)-3,3-dimethyl-2,3-dihydro-1H-pyrrolo[3,2-b]pyridine-5-carbonyl)-3,3-dimethylpiperazin-1-yl)-2,4-dimethylnicotinic acid] | < 500
CC1(C)CN(CCc2ccc(F)cc2)c2ncc(C(=O)N3CCN(c4ccc(CC(=O)O)cn4)CC3(C)C)nc21 [Example 211, 2-(6-(4-(5-(4-fluorophenethyl)-7,7-dimethyl-6,7-dihydro-5H-pyrrolo[2,3-b]pyrazine-2-carbonyl)-3,3-dimethylpiperazin-1-yl)pyridin-3-yl)acetic acid] | 500 to 10000
Cc1cc(N2CCN(C(=O)c3cnc4c(n3)C(C)(C)CN4CCc3ccc(F)cc3)C(C)(C)C2)nc(C)c1C(=O)O [Example 213] | 500 to 10000
Cc1cc(N2CCN(C(=O)c3ccc4c(n3)C3(CN4c4ccc(Cl)c(F)c4)CC(C)(C)C3)C(C)(C)C2)nc(C)c1C(=O)O [Example 215, 6-(4-(1′-(4-chloro-3-fluorophenyl)-3,3-dimethyl-1′,2′-dihydrospiro[cyclobutane-1,3′-pyrrolo[3,2-b]pyridine]-5′-carbonyl)-3,3-dimethylpiperazin-1-yl)-2,4-dimethylnicotinic acid] | < 500
CC1(C)CN(c2cc(F)c(F)c(F)c2)c2ncc(C(=O)N3CCN(c4ccc(CC(=O)O)cn4)CC3(C)C)nc21 [Example 217, 2-(6-(4-(7,7-dimethyl-5-(3,4,5-trifluorophenyl)-6,7-dihydro-5H-pyrrolo[2,3-b]pyrazine-2-carbonyl)-3,3-dimethylpiperazin-1-yl)pyridin-3-yl)acetic acid] | < 500
CC1(C)CN(c2ccc(C(F)(F)F)c(Cl)c2)c2ncc(C(=O)N3CCN(c4ccc(CC(=O)O)cn4)CC3(C)C)nc21 [Example 219, 2-(6-(4-(5-(3-chloro-4-(trifluoromethyl)phenyl)-7,7-dimethyl-6,7-dihydro-5H-pyrrolo[2,3-b]pyrazine-2-carbonyl)-3,3-dimethylpiperazin-1-yl)pyridin-3-yl)acetic acid] | < 500
CC1(C)CN(c2ccc(Cl)c(Cl)c2)c2ncc(C(=O)N3CCN(c4ccc(CC(=O)O)cn4)CC3(C)C)nc21 [Example 221, 2-(6-(4-(5-(3,4-dichlorophenyl)-7,7-dimethyl-6,7-dihydro-5H-pyrrolo[2,3-b]pyrazine-2-carbonyl)-3,3-dimethylpiperazin-1-yl)pyridin-3-yl)acetic acid] | < 500
COCC1CC2(C1)CN(c1ccc(Cl)c(F)c1)c1ccc(C(=O)N3CCN(c4cc(C)c(C(=O)O)c(C)n4)CC3(C)C)nc12 (centres unmarked) [Example 225, 6-(4-(1′-(4-chloro-3-fluorophenyl)-3-(methoxymethyl)-1′,2′-dihydrospiro[cyclobutane-1,3′-pyrrolo[3,2-b]pyridine]-5′-carbonyl)-3,3-dimethylpiperazin-1-yl)-2,4-dimethylnicotinic acid] | < 500
CC1(C)CN(c2ccc(CC(=O)O)cn2)CCN1C(=O)c1cnc2c(n1)C1(CCC1)CN2c1ccc(Cl)c(F)c1 [Example 231, 2-(6-(4-(5′-(4-chloro-3-fluorophenyl)-5′,6′-dihydrospiro[cyclobutane-1,7′-pyrrolo[2,3-b]pyrazine]-2′-carbonyl)-3,3-dimethylpiperazin-1-yl)pyridin-3-yl)acetic acid] | < 500
COCC1CC2(C1)CN(c1ccc(Cl)c(F)c1)c1ccc(C(=O)N3CCN(c4ccc(CC(=O)O)cn4)CC3(C)C)nc12 (centres unmarked) [Example 239, 2-(6-(4-(1′-(4-chloro-3-fluorophenyl)-3-(methoxymethyl)-1′,2′-dihydrospiro[cyclobutane-1,3′-pyrrolo[3,2-b]pyridine]-5′-carbonyl)-3,3-dimethylpiperazin-1-yl)pyridin-3-yl)acetic acid] | < 500
CC1(C)CN(c2cc(F)c(Cl)c(F)c2)c2ncc(C(=O)N3CCN(c4ccc(CC(=O)O)cn4)CC3(C)C)nc21 [Example 241, 2-(6-(4-(5-(4-chloro-3,5-difluorophenyl)-7,7-dimethyl-6,7-dihydro-5H-pyrrolo[2,3-b]pyrazine-2-carbonyl)-3,3-dimethylpiperazin-1-yl)pyridin-3-yl)acetic acid] | < 500
CC1(C)CN(c2ccc(CC(=O)O)cn2)CCN1C(=O)c1cnc2c(n1)C1(CCCC1)CN2c1ccc(Cl)c(F)c1 [Example 243, 2-(6-(4-(5′-(4-chloro-3-fluorophenyl)-5′,6′-dihydrospiro[cyclopentane-1,7′-pyrrolo[2,3-b]pyrazine]-2′-carbonyl)-3,3-dimethylpiperazin-1-yl)pyridin-3-yl)acetic acid] | < 500
CC1(C)CC2(CN(c3ccc(F)c(F)c3)c3ncc(C(=O)N4CCN(c5ccc(CC(=O)O)cn5)CC4(C)C)nc32)C1 [Example 245, 2-(6-(4-(5′-(3,4-difluorophenyl)-3,3-dimethyl-5′,6′-dihydrospiro[cyclobutane-1,7′-pyrrolo[2,3-b]pyrazine]-2′-carbonyl)-3,3-dimethylpiperazin-1-yl)pyridin-3-yl)acetic acid] | < 500

Next, values leading:

IC50 [nM] | SMILES
< 500 | Cc1cc(N2CCN(C(=O)c3cnc4c(n3)C3(CCCC3)CN4c3ccc(Cl)c(F)c3)C(C)(C)C2)nc(C)c1C(=O)O [Example 207, 6-(4-(5′-(4-chloro-3-fluorophenyl)-5′,6′-dihydrospiro[cyclopentane-1,7′-pyrrolo[2,3-b]pyrazine]-2′-carbonyl)-3,3-dimethylpiperazin-1-yl)-2,4-dimethylnicotinic acid]
< 500 | Cc1cc(N2CCN(C(=O)c3cnc4c(n3)C3(CCCC3)CN4c3ccc(F)c(F)c3)C(C)(C)C2)nc(C)c1C(=O)O [Example 223, 6-(4-(5′-(3,4-difluorophenyl)-5′,6′-dihydrospiro[cyclopentane-1,7′-pyrrolo[2,3-b]pyrazine]-2′-carbonyl)-3,3-dimethylpiperazin-1-yl)-2,4-dimethylnicotinic acid]
< 500 | CC1(C)CN(c2ccc(CC(=O)O)cn2)CCN1C(=O)c1cnc2c(n1)C1(CCCC1)CN2c1ccc(F)c(F)c1 [Example 229, 2-(6-(4-(5′-(3,4-difluorophenyl)-5′,6′-dihydrospiro[cyclopentane-1,7′-pyrrolo[2,3-b]pyrazine]-2′-carbonyl)-3,3-dimethylpiperazin-1-yl)pyridin-3-yl)acetic acid]
< 500 | Cc1cc(N2CCN(C(=O)c3cnc4c(n3)C3(CN4c4ccc(F)c(F)c4)CC(C)(C)C3)C(C)(C)C2)nc(C)c1C(=O)O [Example 233, 6-(4-(5′-(3,4-difluorophenyl)-3,3-dimethyl-5′,6′-dihydrospiro[cyclobutane-1,7′-pyrrolo[2,3-b]pyrazine]-2′-carbonyl)-3,3-dimethylpiperazin-1-yl)-2,4-dimethylnicotinic acid]
< 500 | Cc1cc(N2CCN(C(=O)c3cnc4c(n3)C3(CN4c4cc(F)c(F)c(F)c4)CC(C)(C)C3)C(C)(C)C2)nc(C)c1C(=O)O [Example 235, 6-(4-(3,3-dimethyl-5′-(3,4,5-trifluorophenyl)-5′,6′-dihydrospiro[cyclobutane-1,7′-pyrrolo[2,3-b]pyrazine]-2′-carbonyl)-3,3-dimethylpiperazin-1-yl)-2,4-dimethylnicotinic acid]
< 500 | Cc1cc(N2CCN(C(=O)c3cnc4c(n3)C3(CCC3)CN4c3ccc(Cl)c(F)c3)C(C)(C)C2)nc(C)c1C(=O)O [Example 237, 6-(4-(5′-(4-chloro-3-fluorophenyl)-5′,6′-dihydrospiro[cyclobutane-1,7′-pyrrolo[2,3-b]pyrazine]-2′-carbonyl)-3,3-dimethylpiperazin-1-yl)-2,4-dimethylnicotinic acid]
< 500 | Cc1cc(N2CCN(C(=O)c3cnc4c(n3)C3(CN4c4ccc(Cl)c(F)c4)CC(C)(C)C3)C(C)(C)C2)nc(C)c1C(=O)O [Example 247, 6-(4-(5′-(4-chloro-3-fluorophenyl)-3,3-dimethyl-5′,6′-dihydrospiro[cyclobutane-1,7′-pyrrolo[2,3-b]pyrazine]-2′-carbonyl)-3,3-dimethylpiperazin-1-yl)-2,4-dimethylnicotinic acid]
